Assay results as given in PubChem BioAssay AID248 (DTP/NCI, 2004).
“And” between values parts separate entries of the source, which are not always exact repeats. Equal entries are not always repeated. Toxic doses and inconclusive results are not listed. No stated cut-off is given here; in the data, active means T/C of 150% or more; inactive means T/C below 125%.

Tested on: L1210 leukemia ip in BDF1 mice, survival T/C
Experiment: NCI In Vivo Anticancer Drug Screen. Data for tumor model L1210 Leukemia (intraperitoneal) in B6D2F1 (BDF1) mice
Conditions: endpoint: mean survival time, higher = longer survival
How it was run: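 Transplantable tumor model; survival measured in treated vs vehicle control mice. Value = treated/control.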

[1] = dose: 50.0 mg/kg/injection, schedule: Q04DX003 (ip), vehicle: saline
[2] = dose: 100.0 mg/kg/injection, schedule: Q04DX003 (ip), vehicle: saline with Tween-80
[3] = dose: 200.0 mg/kg/injection, schedule: Q04DX003 (ip), vehicle: saline with Tween-80
[4] = dose: 400.0 mg/kg/injection, schedule: Q04DX003 (ip), vehicle: saline with Tween-80

Measured: T/C

O=C(C=C(C(F)(F)F)C(F)(F)F)c1cccc2ccccc12
inactive: dose: 12.5 mg/kg/injection, schedule: Q01DX009 (ip), vehicle: gum acacia 107 % of control | dose: 25.0 mg/kg/injection, schedule: Q01DX009 (ip), vehicle: gum acacia 100 % of control | dose: 50.0 mg/kg/injection, schedule: Q01DX009 (ip), vehicle: gum acacia 100 % of control | dose: 100.0 mg/kg/injection, schedule: Q04DX003 (ip), vehicle: gum acacia 100 % of control | dose: 200.0 mg/kg/injection, schedule: Q04DX003 (ip), vehicle: gum acacia 97 % of control | dose: 400.0 mg/kg/injection, schedule: Q04DX003 (ip), vehicle: gum acacia 91 % of control

Cc1cc(O)[nH]c(=O)c1
inactive: dose: 5.0 mg/kg/injection, schedule: Q01DX001 (ip), vehicle: saline 105 % of control | dose: 10.0 mg/kg/injection, schedule: Q01DX001 (ip), vehicle: saline 105 % of control | dose: 20.0 mg/kg/injection, schedule: Q01DX001 (ip), vehicle: saline 100 % of control | dose: 40.0 mg/kg/injection, schedule: Q01DX001 (ip), vehicle: saline 105 % of control | dose: 80.0 mg/kg/injection, schedule: Q01DX001 (ip), vehicle: saline 100 % of control

CCc1c(CC(=O)O)c2cc(C)ccc2n1Cc1ccc(Cl)cc1
inactive: dose: 12.5 mg/kg/injection, schedule: Q01DX Z (ip), vehicle: saline 95 % of control and 96 % of control | dose: 24.0 mg/kg/injection, schedule: Q01DX Z (ip), vehicle: carboxymethylcellulose (CMC) 91 % of control | dose: 25.0 mg/kg/injection, schedule: Q01DX Z (ip), vehicle: saline 103 % of control and 100 % of control | dose: 36.0 mg/kg/injection, schedule: Q01DX Z (ip), vehicle: carboxymethylcellulose (CMC) 92 % of control | dose: 50.0 mg/kg/injection, schedule: Q01DX Z (ip), vehicle: saline 113 % of control and 102 % of control | dose: 54.0 mg/kg/injection, schedule: Q01DX Z (ip), vehicle: carboxymethylcellulose (CMC) 95 % of control | dose: 100.0 mg/kg/injection, schedule: Q01DX Z (ip), vehicle: saline 95 % of control and 93 % of control | dose: 162.0 mg/kg/injection, schedule: Q01DX Z (ip), vehicle: carboxymethylcellulose (CMC) 94 % of control | dose: 324.0 mg/kg/injection, schedule: Q01DX Z (ip), vehicle: carboxymethylcellulose (CMC) 88 % of control

CC(C)c1ccc(C(=O)Nc2ccc(OCCCc3c(N)nc(N)nc3N)cc2)cc1S(=O)(=O)F
inactive: dose: 100.0 mg/kg/injection, schedule: Q01DX001 (ip), vehicle: Klucel (hydroxypropylcellulose) (HPC) 93 % of control | dose: 200.0 mg/kg/injection, schedule: Q01DX001 (ip), vehicle: Klucel (hydroxypropylcellulose) (HPC) 98 % of control | dose: 400.0 mg/kg/injection, schedule: Q01DX001 (ip), vehicle: Klucel (hydroxypropylcellulose) (HPC) 96 % of control

Nc1ccccc1C(=O)ONC(=O)c1ccccc1
inactive: dose: 100.0 mg/kg/injection, schedule: Q04DX003 (ip), vehicle: carboxymethylcellulose (CMC) 97 % of control | dose: 200.0 mg/kg/injection, schedule: Q04DX003 (ip), vehicle: carboxymethylcellulose (CMC) 93 % of control | dose: 400.0 mg/kg/injection, schedule: Q04DX003 (ip), vehicle: carboxymethylcellulose (CMC) 92 % of control

O=CC(CCN1CCCC1)(CCN1CCCC1)c1cccc2ccccc12
inactive: dose: 12.5 mg/kg/injection, schedule: Q04DX003 (ip), vehicle: saline 97 % of control | dose: 25.0 mg/kg/injection, schedule: Q04DX003 (ip), vehicle: saline 108 % of control | [1] 93 % of control

Cc1ccc([N+](=O)[O-])cc1NC(=O)Nc1nccs1
inactive: dose: 100.0 mg/kg/injection, schedule: Q01DX009 (ip), vehicle: Klucel (hydroxypropylcellulose) (HPC) 104 % of control | dose: 200.0 mg/kg/injection, schedule: Q01DX009 (ip), vehicle: Klucel (hydroxypropylcellulose) (HPC) 101 % of control | dose: 400.0 mg/kg/injection, schedule: Q01DX009 (ip), vehicle: Klucel (hydroxypropylcellulose) (HPC) 102 % of control

CN(C)N=Nc1c(O)ccc2c1CCC1C2CCC2(C)C(=O)CCC12 (stereo not drawn)
inactive: dose: 12.5 mg/kg/injection, schedule: Q01DX009 (ip), vehicle: Klucel (hydroxypropylcellulose) (HPC) 92 % of control | dose: 25.0 mg/kg/injection, schedule: Q01DX009 (ip), vehicle: Klucel (hydroxypropylcellulose) (HPC) 94 % of control | dose: 50.0 mg/kg/injection, schedule: Q01DX009 (ip), vehicle: Klucel (hydroxypropylcellulose) (HPC) 107 % of control

ClC1(Cl)C2CCCCC21N1CCCCC1 (stereo not drawn)
inactive: dose: 50.0 mg/kg/injection, schedule: Q01DX009 (ip), vehicle: saline 102 % of control | [1] 115 % of control | dose: 100.0 mg/kg/injection, schedule: Q01DX001 (ip), vehicle: saline 104 % of control | dose: 100.0 mg/kg/injection, schedule: Q01DX009 (ip), vehicle: saline 87 % of control | dose: 100.0 mg/kg/injection, schedule: Q04DX003 (ip), vehicle: saline 94 % of control | dose: 200.0 mg/kg/injection, schedule: Q01DX001 (ip), vehicle: saline 98 % of control | dose: 200.0 mg/kg/injection, schedule: Q04DX003 (ip), vehicle: saline 101 % of control

CCCCN=C(NC(=S)Nc1ccc(Cl)cc1)SCC
inactive: dose: 100.0 mg/kg/injection, schedule: Q04DX002 (ip), vehicle: saline with Tween-80 95 % of control | dose: 200.0 mg/kg/injection, schedule: Q04DX002 (ip), vehicle: saline with Tween-80 92 % of control | dose: 400.0 mg/kg/injection, schedule: Q04DX002 (ip), vehicle: saline with Tween-80 95 % of control

O=C(O)COc1ccccc1[N+](=O)[O-]
inactive: dose: 100.0 mg/kg/injection, schedule: Q04DX002 (ip), vehicle: Klucel (hydroxypropylcellulose) (HPC) 96 % of control | dose: 200.0 mg/kg/injection, schedule: Q04DX002 (ip), vehicle: Klucel (hydroxypropylcellulose) (HPC) 100 % of control | dose: 400.0 mg/kg/injection, schedule: Q04DX002 (ip), vehicle: Klucel (hydroxypropylcellulose) (HPC) 96 % of control

CCCCCCCCCCCCCCCC[N+](C)=C(SC)c1ccccc1OC
inactive: dose: 0.7 mg/kg/injection, schedule: Q01DX009 (ip), vehicle: Klucel (hydroxypropylcellulose) (HPC) 101 % of control | dose: 1.5 mg/kg/injection, schedule: Q01DX009 (ip), vehicle: Klucel (hydroxypropylcellulose) (HPC) 104 % of control | dose: 1.5 mg/kg/injection, schedule: Q04DX003 (ip), vehicle: Klucel (hydroxypropylcellulose) (HPC) 95 % of control | dose: 3.0 mg/kg/injection, schedule: Q01DX009 (ip), vehicle: Klucel (hydroxypropylcellulose) (HPC) 104 % of control | dose: 3.0 mg/kg/injection, schedule: Q04DX003 (ip), vehicle: Klucel (hydroxypropylcellulose) (HPC) 97 % of control

CC(=O)NC(C(=O)O)(C(=O)O)C(C)c1c[nH]c2ccccc12 (stereo not drawn)
inactive: [2] 95 % of control | [3] 90 % of control | [4] 95 % of control

Clc1ccccc1C(N=Cc1ccc[nH]1)(c1ccccc1)c1ccccc1
inactive: dose: 100.0 mg/kg/injection, schedule: Q04DX003 (ip), vehicle: Klucel (hydroxypropylcellulose) (HPC) 90 % of control | dose: 200.0 mg/kg/injection, schedule: Q04DX003 (ip), vehicle: Klucel (hydroxypropylcellulose) (HPC) 93 % of control | dose: 400.0 mg/kg/injection, schedule: Q04DX003 (ip), vehicle: Klucel (hydroxypropylcellulose) (HPC) 93 % of control

Cc1cc(C)cc(NC(=O)c2ccccc2N)c1
inactive: [2] 96 % of control | [3] 91 % of control | [4] 93 % of control

CCOC(=O)N1CC2CCc3c(ccc4ccccc34)N2C1=O (stereo not drawn)
inactive: dose: 100.0 mg/kg/injection, schedule: Q01DX001 (ip), vehicle: other 97 % of control | dose: 200.0 mg/kg/injection, schedule: Q01DX001 (ip), vehicle: other 92 % of control | dose: 400.0 mg/kg/injection, schedule: Q01DX001 (ip), vehicle: other 95 % of control

COc1ccccc1-c1c(C(=O)O)cccc1[N+](=O)[O-]
inactive: dose: 100.0 mg/kg/injection, schedule: Q01DX009 (ip), vehicle: saline with Tween-80 98 % of control | dose: 200.0 mg/kg/injection, schedule: Q01DX009 (ip), vehicle: saline with Tween-80 106 % of control | dose: 400.0 mg/kg/injection, schedule: Q01DX009 (ip), vehicle: saline with Tween-80 101 % of control
